{"source": "patent US20090286804A1", "about": "“METABOLITES OF 1-[6-(1-ETHYL-1-HYDROXY-PROPYL)-PYRIDIN-3-YL]-3-[2-(4-METHYL-PIPERAZIN-1-YL)-BENZYL]-PYRROLIDIN-2-ONE AS SERATONIN RECEPTOR ANTAGONISTS” (Pfizer Inc, priority 2005, published 2009)", "biological_target": "serotonin-1 receptors (5-HT1A and/or 5-HT1B)", "assay": "radioligand binding assay for serotonin-1 receptor affinity (IC50)", "details": "receptor subtype not given", "text": "The affinities of the compounds of this invention for the various serotonin-1 receptors can be determined using standard radioligand binding assays as described in the literature. The 5-HT1A affinity can be measured using the procedure of Hoyer et al. (Brain Res., 376, 85 (1986)). The 5-HT1B affinity can be measured using the procedure of Heuring and Peroutka (J. Neurosci., 7, 894 (1987)).\nThe in vitro activity of the compounds of the present invention at the 5-HT1B binding site can be determined according to the following procedure. Bovine caudate tissue is homogenized and suspended in 20 volumes of a buffer containing 50 mM TRIS•hydrochloride (tris[hydroxymethyl]aminomethane hydrochloride) at a pH of 7.7. The homogenate is then centrifuged at 45,000 G for 10 minutes. The supernatant is then discarded and the resulting pellet resuspended in approximately 20 volumes of 50 mM TRIS•hydrochloride buffer at pH 7.7. […]\nThe inhibitor, control or vehicle is then incubated according to the following procedure. […] The percent inhibition can be calculated for each dose of the compound. An IC50 value can then be calculated from the percent inhibition values.\nThe activity of the compounds of the present invention for 5-HT1A binding ability can be determined according to the following procedure. […] The tissue is stored at −70° C. until ready for an experiment. […]", "data": [{"molecule": "CCC(O)(c1ccc(N2CC[C@@H](Cc3ccccc3N3CCN(C)CC3)C2=O)cn1)C(C)O", "note": "(stereo in doubt) [Formula I, 1-[6-(1-ethyl-1,2-dihydroxy-propyl)-pyridin-3-yl]-3-[2-(4-methyl-piperazin-1-yl)-benzyl]-pyrrolidin-2-one]", "values": [{"measurement": "IC50", "result": "≤ 100", "unit": "nM"}]}]}
